Measurements taken from US8759073B2, “Method for effectively controlling harmful organisms in large-scale culture of microalgae” (ENN Science & Technology Development Co., Ltd., priority 2009, dated 2014).

Columns and labels:
Oxyrrhis = assay: Control of Oxyrrhis contamination in microalgae culture, microscope examination; assay type: cell-based, Oxyrrhis sp
Description: If the contaminated alga liquid is identified as acid tolerant contamination, pH value is raised up with alkalis in the culture system of the microalgae and maintained for a period of time. The pH value cannot be higher than the maximal tolerable pH of the microalgae. […] In an embodiment, said alkali can be ammonia. In an embodiment, said alkali can be NaOH. In an embodiment, said alkali can be 1M NaOH. Depending on different pH requirements and different culture systems, alkalis with different concentrations can be used according to the agitation condition, as long as the transient pH is not too high to be harmful to microalgae, and dilution of the cell concentration in the culture system (caused by adding too much alkali solution) should also be avoided. […] In an embodiment, the pH of the culture system is adjusted to 11.5-12.0 with 1M NaOH or 1M ammonia. In an embodiment, the pH of the culture system is adjusted to 11.0-11.8 or 8.0-11.0 with 1M NaOH or 1M ammonia. In an embodiment, the pH of the culture system is adjusted to 8.0-11.0, 11.5-12.0 or 11.0-11.8 and maintained for 3 hours.
Microscope examination is always used as one of the bases for determining the growth status in the process of microalgae culture.
(§1) Chlorella sp. (purchased from FACHB collection, Wuhan Aquatic Research Institure, Chinses Academy of Sciences) was cultured in a 320 L bubbling reactor (manufactured by Longfang Jiangchuan plexiglass Co. Ltd., φ300 mm×2 m) out-of-doors under a sunlight film. The culture condition included: a temperature of about 25 °C, a humidity of 60%-80%, and an illumination of 8000-20000 lux. Modified SM (see Table 2) (pH 7.0-9.0 for the normal culture) was used. […] Then, CO2 was aerated to adjust pH to be 7.0-8.0.
(§2) Chlorella sp. (obtained from Jinan University) was cultured in a 320 L bubbling reactor (manufactured by Longfang Jiangchuan plexiglass Co. Ltd., φ300 mm×2 m) out-of-doors under a sunlight film (with a temperature of about 25 °C, a humidity of 60%-80%, and an illumination of 8000-20000 lux). Modified SM medium (see Table 2) was used. When Amoeba, Oxyrrhis and ciliate contaminations were observed is with an oil immersion lens (Nikon fluorescent invert microscope Ti series), pH was adjusted to 11.0-11.8 with 1M NaOH. […] Then, CO2 was aerated continuously to saturation (pH 5.6). […] Then air was sufficiently aerated.
(§3) Chlorococcum sp. (obtained from Qingdao Marine Institute) was cultured in a 60 L glass plate reactor (manufactured by Longfang Jiangchuan plexiglass Co. Ltd., OP=10 cm) under a sunlight film (with a temperature of about 25 °C, a humidity of 60%-80%, and an illumination of 8000-20000 lux) (pH 8.0-9.0 for the normal culture). Modified BG11 medium (see Table 3) was used. […] Then CO2 was aerated and pH was adjusted to 7.0-8.0.
(§4) Chlorococcum sp. (obtained from Qingdao Marine Institute) was cultured in a 60 L glass plate reactor (manufactured by Longfang Jiangchuan plexiglass Co. Ltd., OP=10 cm) under a sunlight film (with a temperature of about 25 °C, a humidity of 60%-80%, and an illumination of 8000-20000 lux) (pH 8.0-9.0 for the normal culture). Modified BG11 medium (see Table 3) was used. […] One hour later, CO2 was aerated to saturation (about pH 5.6) for 24 hour continuously. […] Then air was sufficiently aerated.

Chlorella sp. = assay: Growth of cultured algae after treatment, 320 L bubbling reactor; settings: for algae growth compared with adjusting pH with NaOH: pH adjusted with 1M ammonia
Procedure: (§5) pH of the normally cultured microalgae is adjusted into various ranges. The growth rate of the microalgae is measured and their appearance is observed under a microscope.
as §1
Chlorella sp. (purchased from FACHB collection, Wuhan Aquatic Research Institure, Chinses Academy of Sciences) was cultured in a 320 L bubbling reactor (manufactured by Longfang Jiangchuan plexiglass Co. Ltd., φ300 mm×2 m) out-of-doors under a sunlight film. Modified SM medium (see Table 2) (pH 7.0-9.0 for the normal culture) was used. The culture condition included: a temperature of about 25 °C, a humidity of 60%-80%, and an illumination of 8000-20000 lux. […] Then air was sufficiently aerated, and pH was raised to 7.0-7.5 after 4 hours.
as §2
as §1, with “film. Modified SM medium (see Table 2) (pH 7.0-9.0 for the normal culture) was used.” for “film.”, “lux.” for “lux. Modified SM (see Table 2) (pH 7.0-9.0 for the normal culture) was used.”, “Then” for “Then,”, “aerated and pH was adjusted” for “aerated”, “to” for “to adjust pH to be”
Chlorella sp. (obtained from Jinan University) was cultured in a 320 L bubbling reactor (manufactured by Longfang Jiangchuan plexiglass Co. Ltd., φ300 mm×2 m) out-of-doors under a sunlight film (with a temperature of about 25 °C, a humidity of 60%-80%, and an illumination of 8000-20000 lux). Modified SM medium (see Table 2) was used. […] Then CO2 was aerated to saturation (pH 5.6) for 24 hours continuously. […] Then air was sufficiently aerated.

Chlorococcum sp. = assay: Growth of cultured algae after treatment, 60 L glass plate reactor; settings: for algae growth compared with adjusting pH with NaOH: pH adjusted with 1M ammonia
Procedure: as §5
Chlorococcum sp. (obtained from Qingdao Marine Institute) was cultured (pH 8.0-9.0 for the normal culture) in a 60 L glass plate reactor (manufactured by Longfang Jiangchuan plexiglass Co. Ltd., OP=10 cm) under a sunlight film (with a temperature of about 25 °C, a humidity of 60%-80%, and an illumination of 8000-20000 lux). Modified BG11 medium (see Table 3) was used. […] CO2 was aerated continuously. […] Then air was sufficiently aerated, and pH was raised to 7.0-8.0 in 4 hours.
as §3, §4
as §3, with “air” for “CO2”, “sufficiently aerated.” for “aerated and pH was adjusted to 7.0-8.0.”
as §3
Chlorococcum sp. (obtained from Qingdao Marine Institute) was cultured in a 60 L glass plate reactor (manufactured by Longfang Jiangchuan plexiglass Co. Ltd., OP=10 cm) under a sunlight film (with a temperature of about 25 °C, a humidity of 60%-80%, and an illumination of 8000-20000 lux) (pH 8.0-9.0 for the normal culture). Modified BG11 medium (see Table 3) was used.

Spirulina maxima = assay: Growth of cultured algae after treatment, 500 L raceway pond; assay type: cell-based; settings: Example 15; pH adjusted with 1M ammonia
Procedure: Modified SM (see Table 2) was used. […] Then air was sufficiently aerated. Twenty-four hours later, the algae could resume to grow.
Modified SM (see Table 2) was used. […] One hour later, CO2 was aerated to saturation for 23 hour continuously (about pH 5.8). […] Then air was sufficiently aerated. Twenty-four hours later, the algae could resume to grow.

Row | SMILES | Oxyrrhis, result of microscope examination (Oxyrrhis; Example 2, Chlorella sp. culture, pH 11.0-11.8 with 1M NaOH, three hours) | Oxyrrhis, result of microscope examination (Oxyrrhis; Example 4, Chlorella sp. culture, mixed contamination, pH 11.0-11.8 with 1M NaOH, one hour) | Oxyrrhis, result of microscope examination (Oxyrrhis; Example 6, Chlorococcum sp. culture, pH 11.5-12.0 with 1M NaOH, three hours) | Oxyrrhis, result of microscope examination (Oxyrrhis; Example 7, Chlorococcum sp. culture, mixed contamination, pH 11.5-12.0 with 1M NaOH) | Oxyrrhis, result of microscope examination (Oxyrrhis; Example 11, Chlorella sp. culture, pH 8.0 with 1M ammonia, three hours) | Oxyrrhis, result of microscope examination (Oxyrrhis; Example 12, Chlorella sp. culture, mixed contamination, pH 9.0 with 1M ammonia, one hour) | Oxyrrhis, result of microscope examination (Oxyrrhis; Example 13, Chlorococcum sp. culture, pH 10.0 with 1M ammonia, three hours) | Oxyrrhis, result of microscope examination (Oxyrrhis; Example 14, Chlorococcum sp. culture, mixed contamination, pH 9.0 with 1M ammonia) | time until algae started to grow (Chlorella sp.; Example 11, pH 8.0 with 1M ammonia 3 h, then CO2 to pH 7.0-8.0) [h] | algae growth compared with adjusting pH with NaOH (Chlorella sp.; Example 11) | algae growth compared with adjusting pH with NaOH (Chlorella sp.; Example 12) | time until algae started to grow (Chlorococcum sp.; Example 13, pH 10.0 with 1M ammonia 3 h, then CO2 to pH 7.0-8.0) [h] | algae growth compared with adjusting pH with NaOH (Chlorococcum sp.; Example 13) | algae growth compared with adjusting pH with NaOH (Chlorococcum sp.; Example 14) | algae growth compared with adjusting pH with NaOH (Spirulina maxima)
1 | [Na+].[OH-] [1M NaOH, NaOH] | almost no Oxyrrhis | essentially inactivated | almost no Oxyrrhis | essentially inactivated |  |  |  |  |  |  |  |  |  |  | 
2 | N [1M ammonia, ammonia] |  |  |  |  | almost no Oxyrrhis was observed | lost its activity essentially | almost no Oxyrrhis | inactivated essentially | 18 | clearly grew better | clearly grew better | 18 | clearly grew better | clearly grew better | clearly grew better
